Data as given in patent US6362369B1, “Phthalic acid diamide derivatives fluorine-containing aniline compounds as starting material, agricultural and horticultural insecticides, and a method for application of the insecticides” (Nihon Nohyaku Co., Ltd., priority 1997, dated 2002).

What was measured:
Assay type in all cases: in vivo
[1] = tested on: common cutworm (Spodoptera Litura); assay: Insecticidal effect on common cutworm (Test Example 2); conditions: 500 ppm, 25° C.; for Insecticidal effect on common cutworm (Test Example 2), judged grade / Insecticidal effect (Test Example 2), judged from mortality: cabbage leaf dip; for Insecticidal effect on common cutworm (Test Example 2), judged grade: second-instar larvae; for Insecticidal effect on common cutworm (Test Example 2), judged grade / Insecticidal effect, Test Example 2: eight days after inoculation; for Insecticidal effect (Test Example 2), judged from mortality: 8 days after inoculation; for Insecticidal effect, Test Example 2: cabbage leaf immersed
Procedure, shortened: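 After the treated material air-dries, it goes into a dish, second-instar larvae are added, and the dish is closed. Incubation runs at 25° C. On day eight, dead and living larvae are scored, and the calculated mortality is rated on an effect scale.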

[2] = tested on: rice leafroller (Cnaphalocrocis medinalis); assay: Insecticidal effect on rice leafroller (Test Example 3); conditions: 500 ppm, rice lamina dip, third-instar larvae, four days after inoculation, 25° C., humidity 70%
Procedure, shortened: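 Insecticidal effect is judged by a predefined criterion from dead/alive counts four days after infesting air-dried lamina with third-instar larvae, kept on moistened filter paper at 25° C, 70% humidity.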

[3] = tested on: diamondback moth (Plutella xylostella); assay: Insecticidal effect on diamondback moth (Test Example 1); conditions: for Insecticidal effect (Test Example 1), judged from mortality / Insecticidal effect, Test Example 1: diamondback moth; for Insecticidal effect (Test Example 1), judged from mortality: judged by the criterion of Test Example 1; for Insecticidal effect on diamondback moth (Test Example 1), judged grade: mortality judged according to the criterion shown in Test Example 1
Procedure, shortened: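 Triplicate groups of 10 insects were scored: six days after immersion of oviposited Chinese cabbage seedlings and holding at 25 °C post air-drying, hatched larvae were counted. Mortality derived from these counts and insecticidal effect judged by a set criterion.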

[4] = second-instar larvae of common cutworm
[5] = judged by the mortality criterion of Test Example 1
[6] = mortality judged by criterion of Test Example 1
[7] = common cutworm second-instar larvae

## Cc1cc(OC(F)(F)C(F)(Cl)Cl)ccc1NC(=O)c1c(I)cccc1C(=O)NC(C)C [compound 445]
[1]
  Insecticidal effect on common cutworm (Test Example 2), judged grade: B (99-90)
[2]
  Insecticidal effect on rice leafroller (Test Example 3), judged grade: A (100)

## CC(C)NC(=O)c1c(I)cccc1C(=O)Nc1cc2c(cc1Cl)OC(F)C(F)(F)O2 (racemic) [compound 1600]
[3]
  Insecticidal effect (Test Example 1), judged from mortality: A (100)
[1]; [4]
  Insecticidal effect (Test Example 2), judged from mortality: A (100)

## CC(C)(C)NC(=O)c1c(I)cccc1C(=O)Nc1cc2c(cc1F)OC(F)(F)O2 [compound 1596]
[3]
  Insecticidal effect (Test Example 1), judged from mortality: A (100)
[1]; [4]
  Insecticidal effect (Test Example 2), judged from mortality: A (100)

## CC(C)NC(=O)c1cc(Cl)ccc1C(=O)Nc1ccc(F)cc1 [compound 169]
[3]; [5]
  Insecticidal effect, Test Example 1: A (100)
[1]; [4]
  Insecticidal effect, Test Example 2: D (79-50)

## Cc1cc(OC(F)(F)F)ccc1NC(=O)c1cccc(I)c1C(=O)NC(C)(C)CBr [compound 1605]
[3]
  Insecticidal effect (Test Example 1), judged from mortality: A (100)
[1]; [4]
  Insecticidal effect (Test Example 2), judged from mortality: C (89-80)

## CC(C)NC(=O)c1c(I)cccc1C(=O)Nc1ccc(C(F)(F)C(F)(F)F)c(Cl)c1 [compound 1608]
[3]
  Insecticidal effect (Test Example 1), judged from mortality: A (100)
[1]; [4]
  Insecticidal effect (Test Example 2), judged from mortality: A (100)

## CCOc1cc(C(F)(C(F)(F)F)C(F)(F)F)ccc1NC(=O)c1cccc(I)c1C(=O)NC(C)C [compound 1693]
[3]
  Insecticidal effect (Test Example 1), judged from mortality: A (100)
[1]; [4]
  Insecticidal effect (Test Example 2), judged from mortality: A (100)

## CC(C)(C)NC(=O)c1c(I)cccc1C(=O)Nc1ccc2c(c1)OC(F)(F)C(F)O2 (stereo not shown) [compound 1166]
[3]; [6]
  Insecticidal effect, Test Example 1: A (100)
[1]; [7]
  Insecticidal effect, Test Example 2: A (100)

## CC(C)NC(=O)c1c(I)cccc1C(=O)Nc1ccc(C(F)(C(F)(F)F)C(F)(F)F)cc1F [compound 1669]
[3]
  Insecticidal effect (Test Example 1), judged from mortality: A (100)
[1]; [4]
  Insecticidal effect (Test Example 2), judged from mortality: A (100)

## Cc1c(NC(=O)c2cccc([N+](=O)[O-])c2C(=O)NC(C)C)ccc([N+](=O)[O-])c1C [compound 709]
[3]
  Insecticidal effect on diamondback moth (Test Example 1), judged grade: A (100)
[1]
  Insecticidal effect on common cutworm (Test Example 2), judged grade: A (100)

## Cc1cc2c(cc1NC(=O)c1cccc(I)c1C(=O)NC(C)C)OC(F)(F)C(F)O2 (racemic) [compound 1598]
[3]
  Insecticidal effect (Test Example 1), judged from mortality: A (100)
[1]; [4]
  Insecticidal effect (Test Example 2), judged from mortality: A (100)

## Cc1ccccc1NC(=O)c1cc(Cl)ccc1C(=O)NC(C)C [compound 183]
[3]; [5]
  Insecticidal effect, Test Example 1: A (100)
[1]; [4]
  Insecticidal effect, Test Example 2: B (99-90)

## Cc1cc(C(F)(C(F)(F)F)C(F)(F)F)c(F)cc1NC(=O)c1cccc(I)c1C(=O)NC(C)C [compound 1663]
[3]
  Insecticidal effect (Test Example 1), judged from mortality: A (100)
[1]; [4]
  Insecticidal effect (Test Example 2), judged from mortality: A (100)

## CCN(CC)C(=O)c1c(C(=O)Nc2ccc(OC(F)(F)F)cc2C)cccc1C(F)(F)F [compound 1185]
[3]; [6]
  Insecticidal effect, Test Example 1: A (100)
[1]; [7]
  Insecticidal effect, Test Example 2: C (89-80)

## Cc1cc(C(F)(F)C(F)(F)F)ccc1NC(=O)c1ccc(F)c(Cl)c1C(=O)NC(C)(C)C [compound 1257]
[3]; [6]
  Insecticidal effect, Test Example 1: A (100)
[1]; [7]
  Insecticidal effect, Test Example 2: A (100)

## CC(C)(C)NC(=O)c1c(I)cccc1C(=O)Nc1ccc(OC(F)(F)F)cc1F [compound 1189]
[3]; [6]
  Insecticidal effect, Test Example 1: A (100)
[1]; [7]
  Insecticidal effect, Test Example 2: A (100)

## CC(C)NC(=O)c1cccc(Cl)c1C(=O)Nc1ccc(OC(F)F)c(C(F)(F)F)c1 [compound 254]
[3]; [5]
  Insecticidal effect, Test Example 1: A (100)
[1]; [4]
  Insecticidal effect, Test Example 2: A (100)

## CCN(CC)C(=O)c1c(I)cccc1C(=O)N(CC)c1ccc(C(F)(F)C(F)(F)F)cc1C [compound 1179]
[3]; [6]
  Insecticidal effect, Test Example 1: A (100)
[1]; [7]
  Insecticidal effect, Test Example 2: A (100)

## CC(C)NC(=O)c1cccc(I)c1C(=O)Nc1ccc(SC(F)(F)C(F)(F)C(F)(F)F)cc1 [compound 424]
[3]; [5]
  Insecticidal effect, Test Example 1: A (100)
[1]; [4]
  Insecticidal effect, Test Example 2: A (100)

## Cc1cc(C(F)(F)C(F)(F)F)c(C)cc1NC(=O)c1cccc(I)c1C(=O)NC(C)C [compound 1610]
[3]
  Insecticidal effect (Test Example 1), judged from mortality: A (100)
[1]; [4]
  Insecticidal effect (Test Example 2), judged from mortality: A (100)

## O=C(Nc1ccc(C(F)(F)C(F)(F)F)cc1Cl)c1cccc(Cl)c1C(=O)NCc1ccccc1 [compound 1487]
[3]
  Insecticidal effect (Test Example 1), judged from mortality: A (100)
[1]; [4]
  Insecticidal effect (Test Example 2), judged from mortality: A (100)

## Cc1cc(OC(F)F)ccc1NC(=O)c1cc(Cl)ccc1C(=O)NC(C)C [compound 193]
[3]; [5]
  Insecticidal effect, Test Example 1: A (100)
[1]; [4]
  Insecticidal effect, Test Example 2: D (79-50)

## Cc1cc(OCC(F)(F)C(F)F)ccc1NC(=O)c1cccc(Cl)c1C(=O)NC(C)C [compound 147]
[3]; [5]
  Insecticidal effect, Test Example 1: A (100)
[1]; [4]
  Insecticidal effect, Test Example 2: C (89-80)

## CC(C)NC(=O)c1c(I)cccc1C(=O)Nc1cc2c(cc1F)OC(F)(F)O2 [compound 1595]
[3]
  Insecticidal effect (Test Example 1), judged from mortality: A (100)
[1]; [4]
  Insecticidal effect (Test Example 2), judged from mortality: A (100)

## CC(C)NC(=O)c1c(I)cccc1C(=O)Nc1ccc(C(F)(C(F)(F)F)C(F)(F)F)cc1C(C)C [compound 1691]
[3]
  Insecticidal effect (Test Example 1), judged from mortality: A (100)
[1]; [4]
  Insecticidal effect (Test Example 2), judged from mortality: A (100)

## Cc1cc(C(F)(C(F)(F)F)C(F)(F)F)ccc1NC(=O)c1cccc(OC(F)(F)F)c1C(=O)NC(C)(C)C [compound 1237]
[3]; [6]
  Insecticidal effect, Test Example 1: A (100)
[1]; [7]
  Insecticidal effect, Test Example 2: A (100)

## Cc1cc(OC(F)F)ccc1NC(=O)c1cccc(Cl)c1C(=O)N[C@@H](C)c1ccccc1 [compound 1459]
[3]
  Insecticidal effect (Test Example 1), judged from mortality: A (100)
[1]; [4]
  Insecticidal effect (Test Example 2), judged from mortality: A (100)

## Cc1ccc(NC(=O)c2c(Br)cccc2C(=O)NC(C)C)c(C)c1Cl [compound 309]
[3]; [5]
  Insecticidal effect, Test Example 1: A (100)
[1]; [4]
  Insecticidal effect, Test Example 2: A (100)

## Cc1ccc(Cl)cc1NC(=O)c1cccc([N+](=O)[O-])c1C(=O)NCC(C)C [compound 831]
[3]
  Insecticidal effect on diamondback moth (Test Example 1), judged grade: D (79-50)
[1]
  Insecticidal effect on common cutworm (Test Example 2), judged grade: D (79-50)

## Cc1cc(Cl)ccc1NC(=O)c1c(Cl)cccc1C(=O)NC(C)(C)C [compound 938]
[3]
  Insecticidal effect on diamondback moth (Test Example 1), judged grade: A (100)
[1]
  Insecticidal effect on common cutworm (Test Example 2), judged grade: A (100)

## Cc1cc(OC(F)F)c(Cl)cc1NC(=O)c1c(Cl)cccc1C(=O)NC(C)C [compound 245]
[3]; [5]
  Insecticidal effect, Test Example 1: A (100)
[1]; [4]
  Insecticidal effect, Test Example 2: D (79-50)

## Cc1cc(OC(F)(F)C(F)OC(F)(F)F)ccc1NC(=O)c1c(F)cccc1C(=O)NC(C)C (stereo not shown) [compound 570]
[3]
  Insecticidal effect on diamondback moth (Test Example 1), judged grade: A (100)
[1]
  Insecticidal effect on common cutworm (Test Example 2), judged grade: A (100)

## Cc1c(NC(=O)c2cccc(I)c2C(=O)NC(C)(C)C)ccc(C(F)(F)C(F)(F)F)c1C [compound 1613]
[3]
  Insecticidal effect (Test Example 1), judged from mortality: A (100)
[1]; [4]
  Insecticidal effect (Test Example 2), judged from mortality: A (100)

## CC(C)NC(=O)c1c(I)cccc1C(=O)Nc1ccc(I)cc1C(C)C [compound 965]
[3]; [6]
  Insecticidal effect, Test Example 1: A (100)
[1]; [7]
  Insecticidal effect, Test Example 2: C (89-80)

## CC(C)NC(=O)c1c(C(=O)Nc2ccc(Br)cc2)cccc1[N+](=O)[O-] [compound 591]
[3]
  Insecticidal effect on diamondback moth (Test Example 1), judged grade: A (100)
[1]
  Insecticidal effect on common cutworm (Test Example 2), judged grade: D (79-50)

## Cc1cc(C(F)(F)C(F)(F)F)ccc1NC(=O)c1cccc(C#N)c1C(=O)NC(C)C [compound 1245]
[3]; [6]
  Insecticidal effect, Test Example 1: A (100)
[1]; [7]
  Insecticidal effect, Test Example 2: A (100)

## Cc1cc2c(cc1NC(=O)c1cccc(I)c1C(=O)NC(C)(C)C)OC(F)(F)C(F)O2 (racemic) [compound 1599]
[3]
  Insecticidal effect (Test Example 1), judged from mortality: A (100)
[1]; [4]
  Insecticidal effect (Test Example 2), judged from mortality: A (100)

## C#CCNC(=O)c1c(C(=O)Nc2cc(Cl)ccc2C)cccc1[N+](=O)[O-] [compound 869]
[3]
  Insecticidal effect on diamondback moth (Test Example 1), judged grade: A (100)
[1]
  Insecticidal effect on common cutworm (Test Example 2), judged grade: D (79-50)

## Cc1cc(C(F)(F)C(F)(F)F)ccc1NC(=O)c1cccc(I)c1C(=O)N[C@@H](C)CBr [compound 1606]
[3]
  Insecticidal effect (Test Example 1), judged from mortality: A (100)
[1]; [4]
  Insecticidal effect (Test Example 2), judged from mortality: A (100)

## COc1ccc(NC(=O)c2c(I)cccc2C(=O)NC(C)C)c(C)c1C [compound 451]
[3]
  Insecticidal effect on diamondback moth (Test Example 1), judged grade: A (100)
[1]
  Insecticidal effect on common cutworm (Test Example 2), judged grade: A (100)

## CC(C)NC(=O)c1c(Cl)cccc1C(=O)Nc1ccc(OC(F)(F)F)cc1F [compound 1187]
[3]; [6]
  Insecticidal effect, Test Example 1: A (100)
[1]; [7]
  Insecticidal effect, Test Example 2: A (100)

## Cc1cc(C(F)(F)C(F)(F)F)ccc1NC(=O)c1cccc(C(F)(F)F)c1C(=O)NC(C)C [compound 1184]
[3]; [6]
  Insecticidal effect, Test Example 1: A (100)
[1]; [7]
  Insecticidal effect, Test Example 2: A (100)

## Cc1cc(C(F)(C(F)(F)F)C(F)(F)F)c(F)cc1NC(=O)c1cccc(I)c1C(=O)NC(C)(C)C [compound 1664]
[3]
  Insecticidal effect (Test Example 1), judged from mortality: A (100)
[1]; [4]
  Insecticidal effect (Test Example 2), judged from mortality: A (100)

## Cc1cc(OC(F)(F)F)ccc1NC(=O)c1cccc(OC(F)(F)F)c1C(=O)NC(C)(C)C [compound 1234]
[3]; [6]
  Insecticidal effect, Test Example 1: A (100)
[1]; [7]
  Insecticidal effect, Test Example 2: A (100)
